In patent US9796733B2, “Imidazo-pyrazine derivatives useful as soluble guanylate cyclase activators” (Merck Sharp & Dohme Corp., priority 2014, dated 2017):

Biological target: T1, sGC α1/β1 heterodimer (Homo sapiens, UniProt Q02108+Q02153)
T1 construct: expressed in transfected cells; host or cells: CHO-K1 (clone #7, CHO-K1/sGC)
T1 sequence (Q02108 1-690): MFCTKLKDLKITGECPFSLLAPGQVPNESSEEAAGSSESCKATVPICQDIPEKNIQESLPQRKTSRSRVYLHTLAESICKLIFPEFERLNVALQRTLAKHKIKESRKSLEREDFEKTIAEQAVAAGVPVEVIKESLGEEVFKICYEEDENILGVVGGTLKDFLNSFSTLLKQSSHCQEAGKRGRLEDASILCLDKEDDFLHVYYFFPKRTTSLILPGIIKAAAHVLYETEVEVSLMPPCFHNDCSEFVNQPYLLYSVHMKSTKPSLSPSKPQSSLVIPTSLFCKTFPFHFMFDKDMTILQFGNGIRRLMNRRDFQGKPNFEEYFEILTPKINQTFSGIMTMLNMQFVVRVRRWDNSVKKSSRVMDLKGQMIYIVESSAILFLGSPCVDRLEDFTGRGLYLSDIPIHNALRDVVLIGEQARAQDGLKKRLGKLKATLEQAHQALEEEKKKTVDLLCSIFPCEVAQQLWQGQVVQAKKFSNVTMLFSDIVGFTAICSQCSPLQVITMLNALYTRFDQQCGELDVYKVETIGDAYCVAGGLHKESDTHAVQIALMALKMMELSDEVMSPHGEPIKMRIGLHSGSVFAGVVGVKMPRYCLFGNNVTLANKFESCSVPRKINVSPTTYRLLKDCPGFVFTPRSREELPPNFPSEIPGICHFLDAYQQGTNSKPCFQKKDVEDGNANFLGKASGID
T1 sequence (Q02153 1-619): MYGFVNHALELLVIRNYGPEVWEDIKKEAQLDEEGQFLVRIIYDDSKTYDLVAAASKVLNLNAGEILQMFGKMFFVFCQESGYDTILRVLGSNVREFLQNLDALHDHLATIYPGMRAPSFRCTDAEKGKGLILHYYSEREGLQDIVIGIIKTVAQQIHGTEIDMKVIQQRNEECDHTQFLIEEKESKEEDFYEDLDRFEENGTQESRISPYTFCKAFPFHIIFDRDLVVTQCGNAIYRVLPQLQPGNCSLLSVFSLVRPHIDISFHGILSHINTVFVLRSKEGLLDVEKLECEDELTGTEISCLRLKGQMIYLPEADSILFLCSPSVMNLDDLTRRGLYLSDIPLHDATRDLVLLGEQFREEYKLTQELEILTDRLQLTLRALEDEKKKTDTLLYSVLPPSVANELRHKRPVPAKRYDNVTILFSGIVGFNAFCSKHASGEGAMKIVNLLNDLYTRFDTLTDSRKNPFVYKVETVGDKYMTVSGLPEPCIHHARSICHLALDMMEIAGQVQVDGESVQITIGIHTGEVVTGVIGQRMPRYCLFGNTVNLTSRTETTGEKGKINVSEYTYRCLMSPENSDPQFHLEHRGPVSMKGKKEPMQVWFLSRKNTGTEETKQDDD
Test: Cell-based sGC functional assay (CASA assay): cGMP generation in CHO-K1/sGC cells, HTRF detection
Details: for Emax: CHO-K1, percent activation relative to standard Compound A in CHO-K1/sGC cells, read-out: % Act.; for EC50: inflection point (IP) of cGMP generation in CHO-K1/sGC cells, 4P fit, activity expressed as percentage of Compound A
Outline: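 cGMP was quantified by HTRF after 1 hr, 37° C exposure of thawed CHO-K1 cells expressing sGC α1/β1 to compound, with or without 1 μM DETA-NO. IBMX (0.5 mM) blocked cGMP breakdown, and DMSO was 2.5% final. Percent of standard Compound A's maximal cGMP was fitted (4P) for inflection point.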

| Emax [%] | EC50 [nM] | SMILES |
| --- | --- | --- |
| 115 | 39 | CC1(c2ccc(F)cc2F)C(=O)Nc2nc(-c3cn4ccnc4c(CCC(F)(F)F)n3)nc(N)c21 (stereo not shown) [Example 180A, 4-amino-5-(2,4-difluorophenyl)-5-methyl-2-(8-(3,3,3-trifluoropropyl)imidazo[1,2-a]pyrazin-6-yl)-5H-pyrrolo[2,3-d]pyrimidin-6(7H)-one] |
| 126 | 1070 | CC1(c2ccc(Cl)cc2Cl)C(=O)Nc2nc(-c3cn4ccnc4c(CCC(F)(F)F)n3)nc(N)c21 (stereo not shown) [Example 187A, 4-amino-5-(2,4-dichlorophenyl)-5-methyl-2-(8-(3,3,3-trifluoropropyl)imidazo[1,2-a]pyrazin-6-yl)-5H-pyrrolo[2,3-d]pyrimidin-6(7H)-one] |
| 90 | 130 | CC1(c2cccc(F)c2)C(=O)Nc2nc(-c3cn4ccnc4c(CCC(F)(F)F)n3)nc(N)c21 (stereo not shown) [Example 191A, 4-amino-5-(3-fluorophenyl)-5-methyl-2-(8-(3,3,3-trifluoropropyl)imidazo[1,2-a]pyrazin-6-yl)-5H-pyrrolo[2,3-d]pyrimidin-6(7H)-one] |
| 168 | 923 | COc1ccc(C2(C)C(=O)Nc3nc(-c4cn5ccnc5c(CCC(F)(F)F)n4)nc(N)c32)cc1 (stereo not shown) [Example 192B, 4-amino-5-(4-methoxyphenyl)-5-methyl-2-(8-(3,3,3-trifluoropropyl)imidazo[1,2-a]pyrazin-6-yl)-5H-pyrrolo[2,3-d]pyrimidin-6(7H)-one] |
| 114 | 312 | CC1(c2cc(F)cc(F)c2)C(=O)Nc2nc(-c3cn4ccnc4c(CCC(F)(F)F)n3)nc(N)c21 (stereo not shown) [Example 195B, 4-amino-5-(3,5-difluorophenyl)-5-methyl-2-(8-(3,3,3-trifluoropropyl)imidazo[1,2-a]pyrazin-6-yl)-5H-pyrrolo[2,3-d]pyrimidin-6(7H)-one] |
| 106 | 267 | CC1(c2ccc(OC(F)(F)F)cc2)C(=O)Nc2nc(-c3cn4ccnc4c(CCC(F)(F)F)n3)nc(N)c21 (stereo not shown) [Example 196B, 4-amino-5-methyl-5-(4-(trifluoromethoxy)phenyl)-2-(8-(3,3,3-trifluoropropyl)imidazo[1,2-a]pyrazin-6-yl)-5H-pyrrolo[2,3-d]pyrimidin-6(7H)-one] |
| 96 | 457 | Nc1nc(-c2cn3ccnc3c(CCC(F)(F)F)n2)nc2c1C(c1ccc(Br)cc1)(C1CC1)C(=O)N2 (stereo not shown) [Example 200A, 4-amino-5-(4-bromophenyl)-5-cyclopropyl-2-(8-(3,3,3-trifluoropropyl)imidazo[1,2-a]pyrazin-6-yl)-5H-pyrrolo[2,3-d]pyrimidin-6(7H)-one] |
| 115 | 1170 | CC(C)C1(c2ccc(Cl)cc2)C(=O)Nc2nc(-c3cn4ccnc4c(CCC(F)(F)F)n3)nc(N)c21 (stereo not shown) [Example 203B, 4-amino-5-(4-chlorophenyl)-5-isopropyl-2-(8-(3,3,3-trifluoropropyl)imidazo[1,2-a]pyrazin-6-yl)-5H-pyrrolo[2,3-d]pyrimidin-6(7H)-one] |
| 110 | 14 | CC1(c2ccc(Cl)c(F)c2)C(=O)Nc2nc(-c3cn4ccnc4c(CCCC(F)(F)F)n3)nc(N)c21 (stereo not shown) [Example 204B, 4-amino-5-(4-chloro-3-fluorophenyl)-5-methyl-2-(8-(4,4,4-trifluorobutyl)imidazo[1,2-a]pyrazin-6-yl)-5H-pyrrolo[2,3-d]pyrimidin-6(7H)-one] |
| 116 | 21 | CC1(c2ccc(Cl)cc2)C(=O)Nc2nc(-c3cn4ccnc4c(CCCC(F)(F)F)n3)nc(N)c21 (stereo not shown) [Example 206A, 4-amino-5-(4-chlorophenyl)-5-methyl-2-(8-(4,4,4-trifluorobutyl)imidazo[1,2-a]pyrazin-6-yl)-5H-pyrrolo[2,3-d]pyrimidin-6(7H)-one] |
| 83 | 87 | COc1ccc(C2(C)C(=O)Nc3nc(-c4cn5ccnc5c(CCCC(F)(F)F)n4)nc(N)c32)nc1 (stereo not shown) [Example 212B, 4-amino-5-(5-methoxypyridin-2-yl)-5-methyl-2-(8-(4,4,4-trifluorobutyl)imidazo[1,2-a]pyrazin-6-yl)-5H-pyrrolo[2,3-d]pyrimidin-6(7H)-one] |
| 77 | 153 | CCOc1ccc(C2(C)C(=O)Nc3nc(-c4cn5ccnc5c(CCC(F)(F)C(F)(F)F)n4)nc(N)c32)nc1 (stereo not shown) [Example 224A, 4-amino-5-(5-ethoxypyridin-2-yl)-5-methyl-2-(8-(3,3,4,4,4-pentafluorobutyl)imidazo [1,2-a]pyrazin-6-yl)-5H-pyrrolo[2,3-d]pyrimidin-6(7H)-one] |
| 124 | 287 | CC1(c2ccccn2)C(=O)Nc2nc(-c3cn4ccnc4c(CCC(F)(F)C(F)(F)F)n3)nc(N)c21 (stereo not shown) [Example 226A, 4-amino-5-methyl-2-(8-(3,3,4,4,4-pentafluorobutyl)imidazo [1,2-a]pyrazin-6-yl)-5-(pyridin-2-yl)-5H-pyrrolo[2,3-d]pyrimidin-6(7H)-one] |
| 111 | 249 | CC1(c2ccc(C3CC3)cn2)C(=O)Nc2nc(-c3cn4ccnc4c(CCC(F)(F)C(F)(F)F)n3)nc(N)c21 (stereo not shown) [Example 227B, 4-amino-5-(5-cyclopropylpyridin-2-yl)-5-methyl-2-(8-(3,3,4,4,4-pentafluorobutyl)imidazo [1,2-a]pyrazin-6-yl)-5H-pyrrolo[2,3-d]pyrimidin-6(7H)-one] |
| 122 | 26 | COc1ccc(C2(C)C(=O)Nc3nc(-c4cn5ccnc5c(CCC(F)(F)C(F)(F)F)n4)nc(N)c32)cc1 (stereo not shown) [Example 229B, 4-amino-5-(4-methoxyphenyl)-5-methyl-2-(8-(3,3,4,4,4-pentafluorobutyl)imidazo [1,2-a]pyrazin-6-yl)-5H-pyrrolo[2,3-d]pyrimidin-6(7H)-one] |
| 117 | 32 | Cc1ccc(C2(C)C(=O)Nc3nc(-c4cn5ccnc5c(CCC(F)(F)C(F)(F)F)n4)nc(N)c32)cc1 (stereo not shown) [Example 230B, 4-amino-5-methyl-2-(8-(3,3,4,4,4-pentafluorobutyl)imidazo [1,2-a]pyrazin-6-yl)-5-(p-tolyl)-5H-pyrrolo[2,3-d]pyrimidin-6(7H)-one] |
| 91 | 35 | COc1ccc(C2(C)C(=O)Nc3nc(-c4cn5ccnc5c(CCC(F)(F)C(F)(F)F)n4)nc(N)c32)cn1 (stereo not shown) [Example 236B, 4-amino-5-(6-methoxypyridin-3-yl)-5-methyl-2-(8-(3,3,4,4,4-pentafluorobutyl)imidazo [1,2-a]pyrazin-6-yl)-5H-pyrrolo[2,3-d]pyrimidin-6(7H)-one] |
| 119 | 53 | CC1(c2ccc(C(F)(F)F)cc2)C(=O)Nc2nc(-c3cn4ccnc4c(CCC(F)(F)C(F)(F)F)n3)nc(N)c21 (stereo not shown) [Example 237B, 4-amino-5-methyl-2-(8-(3,3,4,4,4-pentafluorobutyl)imidazo [1,2-a]pyrazin-6-yl)-5-(4-(trifluoromethyl)phenyl)-5H-pyrrolo[2,3-d]pyrimidin-6(7H)-one] |
| 99 | 58 | CC(C)Oc1ccc(C2(C)C(=O)Nc3nc(-c4cn5ccnc5c(CCC(F)(F)C(F)(F)F)n4)nc(N)c32)cn1 (stereo not shown) [Example 241B, 4-amino-5-(6-isopropoxypyridin-3-yl)-5-methyl-2-(8-(3,3,4,4,4-pentafluorobutyl)imidazo [1,2-a]pyrazin-6-yl)-5H-pyrrolo[2,3-d]pyrimidin-6(7H)-one] |
| 133 | 127 | CCc1ccc(C2(C)C(=O)Nc3nc(-c4cn5ccnc5c(CCC(F)(F)C(F)(F)F)n4)nc(N)c32)nc1 (stereo not shown) [Example 242B, 4-amino-5-(5-ethylpyridin-2-yl)-5-methyl-2-(8-(3,3,4,4,4-pentafluorobutyl)imidazo [1,2-a]pyrazin-6-yl)-5H-pyrrolo[2,3-d]pyrimidin-6(7H)-one] |
